{"source": "patent US8663473B2", "about": "“Digestion of biosolids in wastewater” (BCR Environmental Corporation, priority 2009, dated 2014)", "key": {"[1]": {"system": "Waste activated sludge (WAS)", "test": "WAS solubilization by chlorine dioxide: soluble COD, NH4 and PO4 release over contact time", "settings": "for soluble COD concentration: contact time 24 h, WAS approx. 7 g/L solids", "experimental": "Waste activated sludge (WAS) was obtained from a local municipal WWTP which removes cBOD only and uses a pure oxygen system. In order to achieve similar experiment conditions and be consistent with the previous pilot experiment, the solids concentration was adjusted to approximately 7 g/L. Three digesters were set up and treated with chlorine dioxide dosages of 100, 150 and 200 mg/L respectively. The digesters were operated for 24 hours. Samples were taken at time intervals of 10 min, 1 h, 6 h, 12 h and 24 h to represent different contact time.\nThis confirmed that chlorine dioxide contact time is the key factor for WAS solubilization. The increased soluble COD concentration can be expressed as 10-11% of TCOD which is quite significant. It was also observed that soluble COD concentration at contacting time of 6 hr was approximately 55-66% of the soluble COD at time 24 hrs. […] The increase of soluble COD corresponded to the volatile solids destruction of 4-6% with different chlorine dioxide treatment dosage.\nThis is considered insignificant. The PO4 increase was much higher and equaled 16 to 28.3 mg P/L after 24 h. Higher phosphorus than nitrogen release can be attributed to the chlorine dioxide treatment which breaks down the cell walls resulting in the release of unbound orthophosphate PO4—P. The nitrogen in the cells is in the form of organic nitrogen (amino acids) and enzymes are required to convert organic nitrogen to ammonia nitrogen. The low pH resulting from the chlorine dioxide treatment may have deactivated the enzyme activity, therefore no/insignificant NH4—N increase was detected."}, "fecal coliform bacteria": {"system": "fecal coliform bacteria", "test": "Secondary sludge full-scale test: fecal coliform reduction at varying dose rates of chlorine dioxide", "assay_type": "cell-based", "settings": "for Fecal coliform: sludge, 10 minutes contact time", "experimental": "Treatment of non-digested wastewater sludge with chlorine dioxide allows the material to meet Class B pathogen reduction requirements prior to digestion by reducing the fecal coliform concentrations to levels much lower than the Class B standard (<2,000,000 fecal coliform bacteria) with less than 15 minutes contact time. The resulting biosolids cake has no odor.\nIn this test, chlorine dioxide was generated on-site, and was injected (at varying concentrations) into a 100 gpm sludge flow passing through a 4 inch diameter pipe. The pipe length was sufficient to allow 10 minutes of contact time between the sludge and the chlorine dioxide prior to dewatering the material."}, "anaerobic digester": {"system": "anaerobic digester", "test": "Methane production in anaerobic digestion of chlorine dioxide pre-treated sludge", "experimental": "Treatment of non-digested wastewater sludge with chlorine dioxide to solubilized the sludge and make nutrients bio-available and then feeding this material into an established anaerobic digester once the chlorine dioxide residual has been reduced improves gas (methane) production in an anaerobic digester. A generally accepted estimate for methane production at 35° C. is 0.25 kg methane per kg COD consumed. One kmol of methane is equivalent with a mass of 16 kg. Per definition, the COD equivalent of 1 kmol of methane is the mass of the amount of oxygen required for complete oxidation according to the formula: CH4+2O2→CO2+2H2O The mass of the 2 O2 is 2 kmol of oxygen or 64 kg. Thus 64 kg Oxygen Demand is equivalent with 16 kg of methane, or 1 kg of oxygen demand (COD) is equivalent with 16/64=0.25 kg methane.\nThis increase in soluble COD represents 10-11% of the total COD concentration of the sludge, and represents a 2000% increase in soluble COD. The inventors believe that the higher the s-COD the higher capacity for methane production. The resulting increase in methane production as a result of this enhancement of anaerobic digestion has been measured as a greater than 50% increase utilizing this method, and is expected to be in the range of 100% or more over non-pretreated WAS. […]"}}}
{"smiles": "[O][Cl+][O-]", "note": "[chlorine dioxide]", "values": [{"measurement": "NH4 increase", "setting": "[1]; all chlorine dioxide treatments", "value": "3-5.2 mg N/L"}, {"measurement": "soluble COD concentration", "setting": "[1]; chlorine dioxide dosage 100 mg/L", "value": 913, "unit": "mg/L"}, {"measurement": "soluble COD concentration", "setting": "[1]; chlorine dioxide dosage 150 mg/L", "value": 984, "unit": "mg/L"}, {"measurement": "soluble COD concentration", "setting": "[1]; chlorine dioxide dosage 200 mg/L", "value": 965, "unit": "mg/L"}, {"measurement": "volatile solids destruction", "setting": "[1]; different chlorine dioxide treatment dosages", "value": "4-6%"}, {"measurement": "soluble COD at contact time 6 hr as % of soluble COD at 24 hrs", "setting": "[1]; dosages 100-200 mg/L", "value": "55-66%"}, {"measurement": "increase in soluble COD", "setting": "[1]; dosages 100-200 mg/L, 24 h", "value": 2000, "unit": "%"}, {"measurement": "increased soluble COD expressed as % of total COD (TCOD)", "setting": "[1]; dosages 100-200 mg/L, 24 h", "value": "10-11%"}, {"measurement": "fecal coliform concentrations relative to Class B standard", "setting": "fecal coliform bacteria; non-digested wastewater sludge, less than 15 minutes contact time", "value": "< 2,000,000"}, {"measurement": "Fecal coliform", "setting": "fecal coliform bacteria; dose rate ClO2 32 mg/L", "value": "3.32 × 10^5 MPN/g"}, {"measurement": "Fecal coliform", "setting": "fecal coliform bacteria; dose rate ClO2 48 mg/L", "value": "123,000 MPN/g"}, {"measurement": "Fecal coliform", "setting": "fecal coliform bacteria; dose rate ClO2 64 mg/L", "value": "1,800 MPN/g"}, {"measurement": "Fecal coliform", "setting": "fecal coliform bacteria; dose rate ClO2 80 mg/L", "value": "BDL"}, {"measurement": "Fecal coliform", "setting": "fecal coliform bacteria; dose rate ClO2 96 mg/L", "value": "BDL"}, {"measurement": "Fecal coliform", "setting": "fecal coliform bacteria; dose rate ClO2 128 mg/L", "value": "BDL"}, {"measurement": "Fecal coliform", "setting": "fecal coliform bacteria; dose rate ClO2 160 mg/L", "value": "BDL*"}, {"measurement": "expected increase in methane production", "setting": "anaerobic digester; over non-pretreated WAS, expected", "value": "≥ 100", "unit": "%"}, {"measurement": "increase in methane production", "setting": "anaerobic digester; versus non-pretreated WAS", "value": "greater than 50%"}]}
